The term pKi denotes −log10 of the Ki, conventionally taken in molar units. As a reminder, the pEC50 is the negative decadic logarithm of the EC50, by convention in mol/L.

Results on 30 compounds are retold here after US5621133A (priority 1995, dated 1997).

pEC50, pKi: −log10 of the molar value. Structures can show the parent of a compound that is named as a salt. Where two headings read alike, the source gives them in different places.

Assay [1] addresses dopamine D-2 receptor (Rattus norvegicus, UniProt P61169). The experiment in a line: biochemical. The assay is classed as binding. The settings on record: rat caudate, [125I]-p-aminophenylethyl spiroperidol; read-out: D-2 Ki. The protocol: Homogenized rat caudate was the source of the D-2 receptors. […] The molar affinity of the compound for the receptor binding site was calculated by the same method used for the D-1 receptor assay, assuming a competitive interaction between the compound and the radiolabeled ligand.

Assay [2] deals with dopamine D-1 receptor. The following applies: for Intrinsic Activity (adenylate cyclase assay): dopamine = 100, goldfish retina or rat striatum; for pEC50: read-out: EC50 (agonist activity in adenylate cyclase assay), tissue from goldfish retina or rat striatum.
Description: In order to determine agonist activity, cell-free tissue homogenates are incubated in an ionic buffer solution containing ATP and the compound being evaluated. The tissue was obtained from either goldfish retina or rat striatum.
In assay [3] the target is T1, dopamine D-1 receptor (Rattus norvegicus, UniProt P18901). The following applies: read-out: D-1 Ki; rat caudate, [125I]SCH-23982.
T1 sequence (P18901 whole entry): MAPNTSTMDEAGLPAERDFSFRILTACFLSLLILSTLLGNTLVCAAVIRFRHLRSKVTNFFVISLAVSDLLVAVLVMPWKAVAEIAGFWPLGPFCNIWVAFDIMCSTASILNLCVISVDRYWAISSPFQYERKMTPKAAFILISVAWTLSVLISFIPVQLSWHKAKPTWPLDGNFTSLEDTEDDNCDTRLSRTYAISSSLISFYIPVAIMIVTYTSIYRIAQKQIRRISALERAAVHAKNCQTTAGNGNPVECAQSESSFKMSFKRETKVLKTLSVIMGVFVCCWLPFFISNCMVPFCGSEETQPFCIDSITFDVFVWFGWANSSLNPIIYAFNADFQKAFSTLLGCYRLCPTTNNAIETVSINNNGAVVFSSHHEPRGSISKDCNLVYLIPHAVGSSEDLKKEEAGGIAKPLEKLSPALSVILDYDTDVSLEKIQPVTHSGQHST
Excerpt: (§1) The compounds compete with the radiolabeled ligand for occupancy of the receptors and the molar potency of each compound was quantified.
(§2) The Ki values are inversely proportional to the affinity of the compound for the receptor.
The target in assay [4] is T1, dopamine D-1 receptor. The experiment in a line: biochemical. The settings on record: D-1 Ki, rat caudate, [125I]SCH-23982.
Excerpt: as §1, §2
Assay [5] has as its system striatal dopamine receptors. The experiment in a line: Rotation behavior assay of in vivo activity (6-hydroxydopamine lesioned rat rotational model). The following applies: for ED50 s.c. (rotation behavior): injected subcutaneously.

Chain of dopamine D-2 receptor (P61169 whole entry): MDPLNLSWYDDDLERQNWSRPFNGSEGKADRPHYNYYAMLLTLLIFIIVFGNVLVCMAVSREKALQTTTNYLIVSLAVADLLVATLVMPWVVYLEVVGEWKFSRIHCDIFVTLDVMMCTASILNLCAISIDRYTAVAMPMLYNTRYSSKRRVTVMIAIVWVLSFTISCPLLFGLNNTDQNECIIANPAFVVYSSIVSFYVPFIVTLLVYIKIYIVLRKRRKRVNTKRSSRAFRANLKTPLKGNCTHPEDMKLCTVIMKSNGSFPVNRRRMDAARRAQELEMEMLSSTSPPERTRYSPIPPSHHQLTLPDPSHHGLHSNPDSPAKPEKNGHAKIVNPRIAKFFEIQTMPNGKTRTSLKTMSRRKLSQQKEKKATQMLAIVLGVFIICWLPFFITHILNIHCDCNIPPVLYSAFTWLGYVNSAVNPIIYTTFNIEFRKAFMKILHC

With `CCCNCC1=CC(c2ccccc2)Cc2c1ccc(O)c2O` (centres unmarked) [Example 151], the pKi in assay [1] was 5.60. Moreover, in assay [2], the “Intrinsic Activity (adenylate cyclase assay)” value (“Intrinsic Activity” below) is 58 and the pEC50 is 5.15. Moreover, in assay [3], the pKi is 5.24.

Consider `CC(C)OC(=O)CCC(=O)Oc1ccc2c(c1OC(=O)CCC(=O)OC(C)C)CC(c1ccccc1)C=C2CN` (centres unmarked) [Example 24], for which, in assay [1], the pKi was < 5.00. In assay [2], the “Intrinsic Activity” value is reported as 71 and the negative logarithm of the EC50 (pEC50) was 6.30. For the same compound, the pKi in assay [3] was 6.05.

As for `Oc1ccc2c(c1O)C[C@H](c1ccccc1)C[C@H]2[C@H]1CCCN1` (relative stereo) [Example 181, [1,3-cis]5.6-Dihydroxy-3-phenyl-1-(2'-pyrrolidinyl)-1,2,3,4-tetrahydronaph-thalene Hydrobromide], in assay [1], the pKi is 5.34. In addition, in assay [2], the “Intrinsic Activity” value turned out to be 65 and the negative-log EC50 (pEC50) is 7.77. For the same compound, the pKi in assay [3] was 6.41.

As to `NC[C@@H]1O[C@H](CCOCc2ccccc2)Cc2c1ccc(O)c2O` (relative stereo) [Example 77], the pKi is 6.30 in assay [1] and 5.64 in assay [3]. The “Intrinsic Activity” value in assay [2] was determined as 107. The pEC50 in assay [2] is 7.03.

In the case of `NC[C@@H]1C[C@H](C23CC4CC(CC(C4)C2)C3)Cc2c1ccc(O)c2O` (relative stereo) [Example 235], in assay [1], the pKi is < 5.00. In assay [2], the “Intrinsic Activity” value is 83 and the pEC50 is 6.52. Moreover, in assay [3], the pKi was 6.26.

Turning to `NCC1c2ccc(O)c(O)c2CC(c2ccccc2)C1CCO` (stereo not drawn) [Example 45, [1,2-trans]1-Aminomethyl-5,6-dihydroxy-2-(2'-hydroxy-1'-ethyl)-3-phenyl-1,2,3,4-tetrahydronaphthalene Formic Acid Salt], the pKi in assay [1] was < 5.00; in assay [3] it was 5.34. The “Intrinsic Activity” value in assay [2] was found to be 62. Also, the pEC50 in assay [2] is 7.22.

With `CN(C)C[C@@H]1O[C@H](C2CCCCC2)Cc2c1ccc(O)c2O` (relative stereo) [Example 228], in assay [1], the pKi was < 5.00. Besides, in assay [2], the “Intrinsic Activity” value came out at 71 and the negative logarithm of the EC50 (pEC50) was 6.55. Also, in assay [4], the pKi is 7.52. The “ED50 s.c. (rotation behavior)” value in assay [5] came out at 0.1 µmol/kg.

For `CNC[C@@H]1O[C@H](c2ccccc2)Cc2c1ccc(O)c2O` [Example 138], in assay [1], the pKi was 5.66. Also, in assay [2], the “Intrinsic Activity” value came out at 157 and the pEC50 is 7.29. In assay [4], the pKi is 8.52. Moreover, the “ED50 s.c. (rotation behavior)” value in assay [5] turned out to be 0.15 µmol/kg.

As to `NC[C@@H]1O[C@H](CC23CC4CC(CC(C4)C2)C3)Cc2c1ccc(O)c2O` (relative stereo) [Example 90], the pKi in assay [1] is 6.05. Further, in assay [2], the “Intrinsic Activity” value was 128 and the pEC50 was 7.66. In assay [4], this compound had a pKi of 7.12. Besides, in assay [5], the “ED50 s.c. (rotation behavior)” value amounted to 0.6 µmol/kg and the “ED50 oral (rotation behavior)” value is on record as 8 µmol/kg.

Take `NC[C@H]1O[C@@H](COc2ccccc2)Cc2c1ccc(O)c2O` (relative stereo) [Example 55]: the pKi in assay [1] was 5.82; in assay [4] it was 6.42. The “Intrinsic Activity” value in assay [2] worked out at 51. Besides, the pEC50 in assay [2] is 7.62. For the same compound, the “ED50 s.c. (rotation behavior)” value in assay [5] is given as 13.6 µmol/kg.

For the compound `CCCCCC(NC(C)=O)[C@@H]1Cc2c(ccc(O)c2O)[C@H](CN)O1` (relative stereo) [Example 163], the pKi in assay [1] was 6.08; in assay [3], 6.10. Further, the “Intrinsic Activity” value in assay [2] came out at 140. For the same compound, the pEC50 in assay [2] was 5.84.

As to `C[C@H](N)C1OC(c2ccccc2)Cc2c1ccc(O)c2O` (stereo partly drawn) [Example 108, [1,3-cis]1-(1S-(1-Amino)ethyl)-5,6-dihydroxy-3-phenyl-3,4-dihydro-1H-2-benzopyran], the pKi in assay [1] was < 5.00; in assay [3] it was 5.39.

On to `NCC1OC2(CCCCCCCC2)Cc2c1ccc(O)c2O` (centres unmarked) [Example 221], for which the pKi in assay [1] is < 5.00. In assay [2], the “Intrinsic Activity” value came out at 84 and the pEC50 was 7.10. In assay [4], this compound showed a pKi of 7.05. Besides, the “ED50 s.c. (rotation behavior)” value in assay [5] is on record as > 3 µmol/kg.

As for `Oc1ccc2c(c1O)CC1(CCCCC1)C1=C2CNCC1` [Example 205], the pKi in assay [1] is 5.82. In assay [2], the “Intrinsic Activity” value is recorded as 100 and the pEC50 was 7.17. The compound further had a negative logarithm of the Ki (pKi) in assay [4] of 6.68. Further, the “ED50 s.c. (rotation behavior)” value in assay [5] is reported as 3.4 µmol/kg.

As to `CCCCCC(NC(=O)CCl)[C@@H]1Cc2c(ccc(O)c2O)[C@H](CN)O1` (relative stereo) [Example 165], the pKi in assay [1] was 4.77. In addition, in assay [2], the “Intrinsic Activity” value was 105 and the pEC50 is 7.51. Also, the pKi in assay [3] was 5.74.

Regarding `CNCC1OC(CC(C)(C)C)Cc2c1ccc(O)c2O` (centres unmarked) [Example 217], the pKi in assay [1] was 6.00. In addition, in assay [2], the “Intrinsic Activity” value worked out at 108 and the pEC50 was 7.70. In assay [4], the pKi was 7.52. Moreover, the “ED50 s.c. (rotation behavior)” value in assay [5] was found to be 0.12 µmol/kg.

Take `CCNCC1=CC(c2ccccc2)Cc2c1ccc(O)c2O` (centres unmarked) [Example 153]: the pKi in assay [1] is < 5.00. In assay [2], the “Intrinsic Activity” value was 53 and the negative-log EC50 (pEC50) is 5.51. For the same compound, the pKi in assay [3] is 6.07.

In the case of `CCC1Cc2c(ccc(O)c2O)C(CN)O1` (centres unmarked) [Example 67], in assay [2], the “Intrinsic Activity” value is given as 92 and the pEC50 was 6.64. For the same compound, the pKi in assay [3] is 5.72.

On to `Oc1ccc2c(c1O)CC1(CCCCCCCCC1)C1=C2CNCC1` [Example 240], for which the pKi in assay [1] is 5.28; in assay [4], 6.12. Further, the “Intrinsic Activity” value in assay [2] is recorded as 70. Further, the pEC50 in assay [2] was 6.89. Further, in assay [5], the “ED50 s.c. (rotation behavior)” value was > 3 µmol/kg.

Regarding `CNCC1OC(CC2CCCC2)Cc2c1ccc(O)c2O` (centres unmarked) [Example 218], the pKi is 6.39 in assay [1] and 7.70 in assay [4]. Besides, in assay [2], the “Intrinsic Activity” value is 115. The pEC50 in assay [2] was 8.00. The “ED50 s.c. (rotation behavior)” value in assay [5] is listed as 0.93 µmol/kg.

For `NCC1=CC(C23CC4CC(CC(C4)C2)C3)Cc2c1ccc(O)c2O` (centres unmarked) [Example 231], the pKi in assay [1] was < 5.00. Further, in assay [2], the “Intrinsic Activity” value is given as 85 and the pEC50 is 7.05. This compound also showed a pKi in assay [4] of 6.52. Moreover, the “ED50 s.c. (rotation behavior)” value in assay [5] was > 3 µmol/kg.

For the compound `CCCCCCCC[C@@H]1Cc2c(ccc(O)c2O)[C@H](CN)O1` (relative stereo) [Example 64], in assay [1], the pKi was 6.27. In assay [2], the “Intrinsic Activity” value is reported as 80 and the pEC50 is 6.41. Further, in assay [4], the pKi was 6.19. In assay [5], the “ED50 s.c. (rotation behavior)” value amounted to 58 µmol/kg.

With `NCC1OC2(CCCCCC2)Cc2c1ccc(O)c2O` (centres unmarked) [Example 93], the pKi in assay [1] is < 5.00. In assay [2], the “Intrinsic Activity” value came out at 113 and the pEC50 is 6.96. In addition, in assay [4], the pKi was 6.33. Further, the “ED50 s.c. (rotation behavior)” value in assay [5] is 0.9 µmol/kg.

Consider `CNC[C@@H]1O[C@H](C2(C)CCCCC2)Cc2c1ccc(O)c2O` (relative stereo) [Example 226], for which, in assay [1], the pKi is 5.82. For the same compound, in assay [2], the “Intrinsic Activity” value is on record as 89 and the pEC50 is 7.40. Besides, the pKi in assay [4] is 7.70. Besides, the “ED50 s.c. (rotation behavior)” value in assay [5] was > 1 µmol/kg.

`CNC[C@@H]1O[C@H](C23CC4CC(CC(C4)C2)C3)Cc2c1cc(F)c(O)c2O` [Example 145]: the pKi in assay [1] was 4.92. Besides, in assay [2], the “Intrinsic Activity” value turned out to be 49 and the pEC50 was 7.42. In assay [4], this compound showed a pKi of 7.17. In addition, the “ED50 s.c. (rotation behavior)” value in assay [5] is on record as 0.31 µmol/kg.

Take `CNC[C@@H]1O[C@H](CC23CC4CC(CC(C4)C2)C3)Cc2c1ccc(O)c2O` (relative stereo) [Example 139]: in assay [1], the pKi was 5.49. Further, in assay [2], the “Intrinsic Activity” value is recorded as 129 and the pEC50 was 8.01. Moreover, in assay [4], the pKi was 6.35. In addition, in assay [5], the “ED50 s.c. (rotation behavior)” value was 0.4 µmol/kg and the “ED50 oral (rotation behavior)” value is reported as 23 µmol/kg.

Consider `Oc1ccc2c(c1O)CC1(CCCC1)C1=C2CNCC1` [Example 204], for which the pKi in assay [1] is 5.82. Besides, in assay [2], the “Intrinsic Activity” value amounted to 110 and the pEC50 is 7.32. In addition, the pKi in assay [4] is 6.80. Besides, in assay [5], the “ED50 s.c. (rotation behavior)” value turned out to be 1.1 µmol/kg and the “ED50 oral (rotation behavior)” value amounted to 18 µmol/kg.

In the case of `CNC[C@@H]1O[C@H](C2(c3ccccc3)CCCCC2)Cc2c1ccc(O)c2O` (relative stereo) [Example 225], in assay [1], the pKi is 5.77. In addition, in assay [2], the “Intrinsic Activity” value was 76 and the pEC50 is 6.89. In assay [4], the pKi was 7.05. Besides, the “ED50 s.c. (rotation behavior)” value in assay [5] is > 3 µmol/kg.

Turning to `NC[C@@H]1O[C@H](CC2CCCCC2)Cc2c1ccc(O)c2O` (relative stereo) [Example 88], in assay [1], the pKi is 5.82. In addition, in assay [2], the “Intrinsic Activity” value worked out at 133 and the pEC50 is 7.92. Further, in assay [4], the pKi was 6.89. In assay [5], the “ED50 s.c. (rotation behavior)” value is 0.61 µmol/kg and the “ED50 oral (rotation behavior)” value amounted to 32 µmol/kg.

As for `CCCN(CCC)CC1=CC(c2ccccc2)Cc2c1ccc(O)c2O` (centres unmarked) [Example 152], the pKi in assay [1] was 4.92; in assay [3], 4.23.
